What was measured:
[1] = test system: Human immunodeficiency virus 1; experiment: Antiviral activity against wild type HIV-1 P1 infected in human C8166 cells assessed as reduction in viral RNA production at 5 nM; type: functional; settings: Human immunodeficiency virus 1, P1, C8166
[2] = Selectivity ratio of CC50 for human MT4 cells to EC50 for antiviral activity against HIV-1 NL4-3 infected in human MT4 cells; type: toxicity, cell-based; settings: read-out: Ratio CC50/EC50
[3] = test system: Human immunodeficiency virus 1; experiment: Antiviral activity against wild type HIV-1 P1 infected in human C8166 cells assessed as reduction in viral p24 antigen production at 25 nM; type: functional; settings: Human immunodeficiency virus 1, P1, C8166
[4] = test system: Human immunodeficiency virus 1; experiment: Resistance index, ratio of EC50 for antiviral activity against HIV1 harboring RT K103N/Y181C double mutant infected in human MT4 cells to EC50 for antiviral activity against HIV1 NL4-3 infected in human MT4 cells; type: functional
[5] = test system: Human immunodeficiency virus 1; experiment: Resistance index, ratio of EC50 for antiviral activity against HIV1 harboring RT Y181C mutant infected in human MT4 cells to EC50 for antiviral activity against HIV1 NL4-3 infected in human MT4 cells; type: functional
[6] = molecular target: Human immunodeficiency virus type 1 reverse transcriptase (Human immunodeficiency virus 1, UniProt Q72547, K103N); experiment: Inhibition of RNA-dependent DNA polymerase activity of recombinant HIV-1 p66/p51 reverse transcriptase K103N mutant assessed as inhibition of [3H]dTTP incorporation using poly(rA)/oligo(dT) as templates incubated for 15 mins by MicroBeta scintillation counting method
[7] = Cytotoxicity against human MT-4 cells assessed as reduction in cell viability by MTT assay; type: cell-based, MT4
[8] = Inhibition of RNA-dependent DNA polymerase activity of recombinant HIV-1 p66/p51 reverse transcriptase Y188L mutant assessed as inhibition of [3H]dTTP incorporation using poly(rA)/oligo(dT) as templates incubated for 15 mins by MicroBeta scintillation counting method; design: species or system Human immunodeficiency virus 1
[9] = molecular target: Human immunodeficiency virus type 1 reverse transcriptase (Human immunodeficiency virus 1, UniProt Q72547); experiment: Inhibition of RNA-dependent DNA polymerase activity of wild type recombinant HIV-1 His-tagged p66/p51 reverse transcriptase assessed as inhibition of [3H]dTTP incorporation using poly(rA)/oligo(dT) as templates incubated for 15 mins by MicroBeta scintillation counting method
[10] = test system: Human immunodeficiency virus 1; experiment: Antiviral activity against wild type HIV-1 P1 infected in human C8166 cells assessed as reduction in viral RNA production at 25 nM; type: functional; settings: Human immunodeficiency virus 1, P1, C8166
[11] = test system: Human immunodeficiency virus 1; experiment: Antiviral activity against HIV1 harboring RT K103N mutant infected in human MT4 cells assessed as protection against virus-induced cytopathic effect by MTT assay; type: functional, organism-based; settings: Human immunodeficiency virus 1, MT4
[12] = test system: Human immunodeficiency virus 1; experiment: Antiviral activity against HIV-1 NL4-3 infected in human MT-4 cells assessed as virus induced cytopathic effect by MTT assay; type: functional, organism-based; settings: Human immunodeficiency virus 1, NL4-3, MT4
[13] = test system: Human immunodeficiency virus 1; experiment: Antiviral activity against HIV1 harboring RT Y181C mutant infected in human MT4 cells assessed as protection against virus-induced cytopathic effect by MTT assay; type: functional, organism-based; settings: Human immunodeficiency virus 1, MT4
[14] = Inhibition of RNA-dependent DNA polymerase activity of recombinant HIV-1 p66/p51 reverse transcriptase K103N/Y181C mutant assessed as inhibition of [3H]dTTP incorporation using poly(rA)/oligo(dT) as templates incubated for 15 mins by MicroBeta scintillation counting method; design: species or system Human immunodeficiency virus 1
[15] = test system: Human immunodeficiency virus 1; experiment: Antiviral activity against HIV1 harboring RT K103N/Y181C double mutant infected in human MT4 cells assessed as protection against virus-induced cytopathic effect by MTT assay; type: functional, organism-based; settings: Human immunodeficiency virus 1, MT4
[16] = test system: Human immunodeficiency virus 1; experiment: Antiviral activity against wild type HIV-1 P1 infected in human C8166 cells assessed as reduction in viral RNA production at 1 nM; type: functional; settings: Human immunodeficiency virus 1, P1, C8166
[17] = test system: Human immunodeficiency virus 1; experiment: Resistance index, ratio of EC50 for antiviral activity against HIV1 harboring RT Y188L mutant infected in human MT4 cells to EC50 for antiviral activity against HIV1 NL4-3 infected in human MT4 cells; type: functional
[18] = test system: Human immunodeficiency virus 1; experiment: Antiviral activity against HIV1 harboring RT Y188L mutant infected in human MT4 cells assessed as protection against virus-induced cytopathic effect by MTT assay; type: functional, organism-based; settings: Human immunodeficiency virus 1, MT4
[19] = test system: Human immunodeficiency virus 1; experiment: Resistance index, ratio of EC50 for antiviral activity against HIV1 harboring RT K103N mutant infected in human MT4 cells to EC50 for antiviral activity against HIV1 NL4-3 infected in human MT4 cells; type: functional

| Compound | inhibition at 0.005 µM [1] [%] | selectivity ratio [2] | inhibition at 0.025 µM [3] [%] | Ratio EC50 [4] | Ratio EC50 [5] | IC50 [6] [µM] | CC50 [7] [µM] | IC50 [8] [µM] | IC50 [9] [µM] | inhibition at 0.025 µM [10] [%] | EC50 [11] [µM] | EC50 [12] [µM] | EC50 [13] [µM] | IC50 [14] [µM] | EC50 [15] [µM] | inhibition at 0.001 µM [16] [%] | Ratio EC50 [17] | EC50 [18] [µM] | Ratio EC50 [19] |
| --- | --- | --- | --- | --- | --- | --- | --- | --- | --- | --- | --- | --- | --- | --- | --- | --- | --- | --- | --- |
| Cc1cc(C)cc(S(=O)(=O)c2c(C(=O)NCc3cccc(O)c3)[nH]c3ccc(Cl)cc23)c1 | 38 | > 44900 | 55 | >183 | >18 | 0.002 | 27 | 0.033 | 0.068 | 85 | < 0.0006 | < 0.0006 | 0.011 | 0.045 | 0.11 | 7 | – | – | – |
| Cc1cc(C)cc(S(=O)(=O)c2c(C(=O)NCc3ccccc3N)[nH]c3ccc(Cl)cc23)c1 | 10 | > 65900 | 90 | >33 | – | 0.007 | 46.2 | 0.057 | 0.019 | 100 | < 0.0007 | < 0.0007 | < 0.0007 | 0.015 | 0.0235 | – | >3 | 0.0021 | – |
| Cc1cc(C)cc(S(=O)(=O)c2c(C(=O)NC(C)C(=O)NCc3cccc(O)c3)[nH]c3ccc(Cl)cc23)c1 (configuration not stated) | – | > 39600 | – | >5239 | 12 | 0.012 | 23.8 | 0.034 | 0.208 | – | 0.0185 | < 0.0006 | 0.0074 | 0.842 | 3.67 | – | >5340 | 3.2 | >31 |
